Measurements from patent publication US8703917B2, “Epidermal growth factor receptor variants and pharmaceutical compositions thereof” (Shanghai Cancer Institute, priority 2010, dated 2014).

Key:
[1] = test system: U87MG EGFRvA; test: Cell growth suppression assay (CCK-8) using small molecular inhibitors against EGFR; type: cell-based, human
Protocol: (§1) Methods: cells in the log-phase growth were plated in 96-well plates with 3000 cells/well. […] The medium were replaced with fresh medium containing 10% CCK-8 reagents and incubated for another 2 h. The OD450 value was then measured.

[2] = test system: U87MG EGFRwt; test: as above; type: cell-based, human; details: U87MG EGFRwt cells, 72 h with inhibitor, CCK-8 OD450
Protocol: as §1

IC50 ([1]; U87MG EGFRvA cells, 72 h with inhibitor, CCK-8 OD450) [nM]	IC50 ratio (EGFRvA/EGFRwt) ([1]; U87MG EGFRvA versus U87MG EGFRwt)	IC50 [2] [nM]	SMILES	sensitivity of cell line stably expressing EGFRvA compared with cell line stably expressing EGFR ([1]; FIG. 7)
4060	4.56	890	COc1cc2ncnc(Nc3cccc(Cl)c3)c2cc1OC [AG1478]	–
–	–	–	C#Cc1cccc(Nc2ncnc3cc(OCCOC)c(OCCOC)cc23)c1 [Erlotinib]	lower sensitivity
